Reference: article PMC10820527, “Synthesis, Characterization, and Investigation of Anti-Inflammatory and Cytotoxic Activities of Novel Thiourea Derivatives of Naproxen” (Pharmaceutics, 2023)

Key:
5-LOX = biological target: T1, 5-LOX (Homo sapiens, UniProt P09917); test: Fluorometric 5-LOX inhibitor screening kit; assay type: biochemical; conditions: mean of two measurements with standard error, read-out: 5-LOX Percent of Inhibition
T1 construct: purchased Abcam
T1 sequence (P09917 1-674): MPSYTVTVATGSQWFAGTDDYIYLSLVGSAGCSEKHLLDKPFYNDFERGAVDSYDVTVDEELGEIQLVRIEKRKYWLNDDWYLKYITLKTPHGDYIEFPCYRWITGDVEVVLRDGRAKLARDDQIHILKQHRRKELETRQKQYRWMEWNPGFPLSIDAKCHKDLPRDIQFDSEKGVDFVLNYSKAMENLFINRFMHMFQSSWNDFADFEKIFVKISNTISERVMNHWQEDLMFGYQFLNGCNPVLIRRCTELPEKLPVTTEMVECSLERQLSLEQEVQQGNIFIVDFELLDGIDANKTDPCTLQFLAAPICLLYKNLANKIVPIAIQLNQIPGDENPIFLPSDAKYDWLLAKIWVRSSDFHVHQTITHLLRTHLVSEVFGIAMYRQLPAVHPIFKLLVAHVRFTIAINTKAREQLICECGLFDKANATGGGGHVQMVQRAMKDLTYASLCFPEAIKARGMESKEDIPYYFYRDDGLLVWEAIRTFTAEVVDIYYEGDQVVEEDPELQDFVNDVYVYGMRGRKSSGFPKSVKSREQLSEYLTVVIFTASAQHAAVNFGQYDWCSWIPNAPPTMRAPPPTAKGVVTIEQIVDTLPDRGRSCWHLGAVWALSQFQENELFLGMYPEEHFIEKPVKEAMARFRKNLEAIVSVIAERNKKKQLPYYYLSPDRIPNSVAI
Protocol: The COX-2 and 5-LOX inhibitory potential of the tested compounds was evaluated using a fluorometric COX-2 and 5-LOX inhibitor screening kit (Abcam, Cambridge, UK). These tests are based on determining the presence of prostaglandin G2 (a product of COX enzyme activity) or an intermediate generated by the enzyme 5-LOX, using fluorometric detection. The mentioned experiments were performed according to the manufacturer’s instructions.
For the determination of COX-2 inhibitory potential of tested compounds, stock solutions (5 mM in DMSO) were diluted with the same solvent (test solutions). The test solutions were further diluted with COX assay buffer by mixing 2 µL of the corresponding test solution and 8 µL of COX assay buffer. For the preparation of inhibitory control (IC), celecoxib (2 µL) and COX assay buffer (8 µL) were mixed. Solvent control (SC) was prepared by mixing DMSO (2 µL) and the COX assay buffer (8 µL), enzyme control (EC) was 10 µL of COX assay buffer, while the samples (S) were 10 µL of diluted test solutions. IC, SC, EC, and S were transferred into corresponding wells. For the determination of 5-LOX inhibitory potential of tested compounds, stock solutions of the same concentration (5 mM) were prepared in DMSO. These solutions were further diluted with the same solvent to obtain the test solutions, which were added into the appropriate wells (2 µL). EC, SC, and IC were prepared by adding 2 µL of the assay buffer, DMSO, and zileuton into corresponding wells, respectively.
The fluorescence of the samples was measured kinetically at 25 °C (COX-2: Ex/Em = 535/587 nm, during 10 min; 5-LOX: Ek/Em = 500/536 nm during 20 min) using a Synergi LX multi-mode microplate reader (BioTek, Shoreline, WA, USA).

[1] = test system: carrageenan-induced rat paw edema; test: Carrageenan-induced rat paw edema model; assay type: in vivo; conditions: for Rat Paw Thickness: mean ± SD; for inhibition in vivo at 2.5 mg/kg / inhibition in vivo at 5 mg/kg / inhibition in vivo at 10 mg/kg: Rattus norvegicus
Protocol: The Carrageenan-induced rat paw edema model was used to assess the anti-inflammatory potential of novel compounds 8–14. Induction of inflammation was performed in all animals by intraplantar injection of […] 0.5% carrageenan saline into the left hind paw.
Animals (n = 200) were randomly divided into the following groups: control groups, that received either 1% DMSO or naproxen, and experimental groups, that received the novel compounds 8–14.
Control groups included DMSO and naproxen groups. Rats belonging to the DMSO group received 1% DMSO in the same volume as the compounds 8–14, 60 min before carrageenan injection. Moreover, naproxen groups included rats that were subjected to naproxen treatment in three doses: 2.5 mg/kg, 5 mg/kg, and 10 mg/kg. Naproxen was applied in the same manner as 1% DMSO.
Experimental groups included rats that were treated with compounds 8–14 and they were divided into three subgroups depending on the applied dose: 2.5 mg/kg, 5 mg/kg, and 10 mg/kg. The examined compounds were dissolved in 1% DMSO prior to treatment and applied to rats 60 min before inducing inflammation, i.e., before carrageenan injection. Doses of naproxen and investigated compounds were defined based on our previously published research.
In order to quantify the anti-inflammatory effects of the tested compounds, left paw thickness was measured at specific time points: prior to inflammation induction (moment 0) and 1, 2, 3, and 4 h (moments 1, 2, 3, and 4) following carrageenan injection. Tissue thickness was measured in the middle of the rat paw using a Digital Vernier caliper (Aerospace, China). The percentage of inhibition of paw edema after treatment with different agents was calculated according to the formula, Equation (2):% Inhibition = 100 × [1 − (Yt/Yc)](2) where Yt = average increase in paw thickness in the treated group of rats between two measurement moments, and Yc = average increase in paw thickness in the untreated group of rats between two measurement moments.

[2] = 2.5 mg/kg, 1 h after carrageenan
[3] = 2.5 mg/kg, 2 h after carrageenan
[4] = 2.5 mg/kg, 3 h after carrageenan
[5] = 2.5 mg/kg, 4 h after carrageenan
[6] = 5.0 mg/kg, 1 h after carrageenan
[7] = 5.0 mg/kg, 2 h after carrageenan
[8] = 5.0 mg/kg, 3 h after carrageenan
[9] = 5.0 mg/kg, 4 h after carrageenan
[10] = 10.0 mg/kg, 1 h after carrageenan
[11] = 10.0 mg/kg, 2 h after carrageenan
[12] = 10.0 mg/kg, 3 h after carrageenan
[13] = 10.0 mg/kg, 4 h after carrageenan

SMILES | inhibition at 10 µM (5-LOX) [%] | Rat Paw Thickness [1, 2] [mm] | Rat Paw Thickness [1, 3] [mm] | Rat Paw Thickness [1, 4] [mm] | Rat Paw Thickness [1, 5] [mm] | Rat Paw Thickness [1, 6] [mm] | Rat Paw Thickness [1, 7] [mm] | Rat Paw Thickness [1, 8] [mm] | Rat Paw Thickness [1, 9] [mm] | Rat Paw Thickness [1, 10] [mm] | Rat Paw Thickness [1, 11] [mm] | Rat Paw Thickness [1, 12] [mm] | Rat Paw Thickness [1, 13] [mm] | inhibition in vivo at 2.5 mg/kg ([1]; 2.5 mg/kg, 1 h) [%] | inhibition in vivo at 2.5 mg/kg ([1]; 2.5 mg/kg, 2 h) [%] | inhibition in vivo at 2.5 mg/kg ([1]; 2.5 mg/kg, 3 h) [%] | inhibition in vivo at 2.5 mg/kg ([1]; 2.5 mg/kg, 4 h) [%] | inhibition in vivo at 5 mg/kg ([1]; 5.0 mg/kg, 1 h) [%] | inhibition in vivo at 5 mg/kg ([1]; 5.0 mg/kg, 2 h) [%] | inhibition in vivo at 5 mg/kg ([1]; 5.0 mg/kg, 3 h) [%] | other results
COc1ccc2cc([C@H](C)C(=O)NC(=S)Nc3ccccc3OC)ccc2c1 [Compound 11, (S)-2-(6-methoxynaphthalen-2-yl)-N-((2-methoxyphenyl)carbamothioyl)propanamide] | 31.2 ± 5.45 | 7.30 ± 0.60 | 6.97 ± 0.67 | 6.67 ± 0.80 | 6.50 ± 0.80 | 6.97 ± 0.12 | 6.73 ± 0.15 | 6.27 ± 0.23 | 6.07 ± 0.15 | 7.33 ± 0.06 | 6.93 ± 0.12 | 6.63 ± 0.15 | 6.17 ± 0.31 | 22.4 | 28.8 | 31.5 | 26.7 | 22.4 | 24.2 | 35.1 | inhibition in vivo at 5 mg/kg ([1]; 5.0 mg/kg, 4 h): 33.3%; inhibition in vivo at 10 mg/kg ([1]; 10.0 mg/kg, 1 h): 10.2%; inhibition in vivo at 10 mg/kg ([1]; 10.0 mg/kg, 2 h): 18.2%; inhibition in vivo at 10 mg/kg ([1]; 10.0 mg/kg, 3 h): 18.9%; inhibition in vivo at 10 mg/kg ([1]; 10.0 mg/kg, 4 h): 31.1%
COC(=O)[C@H](Cc1c[nH]c2ccccc12)NC(=S)NC(=O)[C@@H](C)c1ccc2cc(OC)ccc2c1 [Compound 14, Methyl (((S)-2-(6-methoxynaphthalen-2-yl)propanoyl)carbamothioyl)tryptophanate] | 46.24 ± 0.4 | 6.53 ± 0.42 | 6.23 ± 0.25 | 5.90 ± 0.26 | 5.33 ± 0.49 | 6.77 ± 0.38 | 6.53 ± 0.42 | 6.17 ± 0.25 | 5.80 ± 0.10 | 7.03 ± 0.21 | 6.47 ± 0.06 | 6.03 ± 0.25 | 5.67 ± 0.21 | 12.9 | 16.7 | 18.9 | 37.8 | 25.2 | 27.3 | 33.3 | inhibition in vivo at 5 mg/kg ([1]; 5.0 mg/kg, 4 h): 42.2%; inhibition in vivo at 10 mg/kg ([1]; 10.0 mg/kg, 1 h): 11.6%; inhibition in vivo at 10 mg/kg ([1]; 10.0 mg/kg, 2 h): 27.3%; inhibition in vivo at 10 mg/kg ([1]; 10.0 mg/kg, 3 h): 36.9%; inhibition in vivo at 10 mg/kg ([1]; 10.0 mg/kg, 4 h): 46.7%
COc1ccc2cc([C@H](C)C(=O)NC(=S)Nc3ccccc3C)ccc2c1 [Compound 10, (S)-2-(6-methoxynaphthalen-2-yl)-N-(o-tolylcarbamothioyl)propanamide] | 27.9 ± 0.57 | 6.17 ± 0.51 | 6.07 ± 0.83 | 5.77 ± 0.85 | 5.17 ± 0.75 | 6.47 ± 0.51 | 6.13 ± 0.47 | 5.77 ± 0.32 | 5.67 ± 0.40 | 6.20 ± 0.36 | 5.93 ± 0.31 | 5.70 ± 0.44 | 5.20 ± 0.44 | 18.4 | 13.6 | 13.5 | 33.3 | 29.3 | 36.4 | 44.1 | inhibition in vivo at 5 mg/kg ([1]; 5.0 mg/kg, 4 h): 37.8%; inhibition in vivo at 10 mg/kg ([1]; 10.0 mg/kg, 1 h): 19.7%; inhibition in vivo at 10 mg/kg ([1]; 10.0 mg/kg, 2 h): 22.7%; inhibition in vivo at 10 mg/kg ([1]; 10.0 mg/kg, 3 h): 20.7%; inhibition in vivo at 10 mg/kg ([1]; 10.0 mg/kg, 4 h): 35.6%
COc1ccc2cc([C@H](C)C(=O)NC(=S)Nc3ccccc3)ccc2c1 [Compound 8, (S)-2-(6-methoxynaphthalen-2-yl)-N-(phenylcarbamothioyl)propanamide] | 34.6 ± 5.84 | 5.67 ± 0.15 | 5.43 ± 0.15 | 5.07 ± 0.21 | 4.53 ± 0.50 | 6.0 ± 0.36 | 5.8 ± 0.44 | 5.40 ± 0.44 | 4.96 ± 0.35 | 6.0 ± 0.40 | 5.60 ± 0.44 | 5.27 ± 0.38 | 5.07 ± 0.21 | 19.7 | 21.2 | 26.1 | 44.4 | 23.8 | 24.2 | 31.5 | inhibition in vivo at 5 mg/kg ([1]; 5.0 mg/kg, 4 h): 44.9%; inhibition in vivo at 10 mg/kg ([1]; 10.0 mg/kg, 1 h): 29.3%; inhibition in vivo at 10 mg/kg ([1]; 10.0 mg/kg, 2 h): 39.4%; inhibition in vivo at 10 mg/kg ([1]; 10.0 mg/kg, 3 h): 45.9%; inhibition in vivo at 10 mg/kg ([1]; 10.0 mg/kg, 4 h): 46.7%
COC(=O)[C@H](Cc1ccccc1)NC(=S)NC(=O)[C@@H](C)c1ccc2cc(OC)ccc2c1 [Compound 13, Methyl (((S)-2-(6-methoxynaphthalen-2-yl)propanoyl)carbamothioyl)phenylalaninate] | 19.8 ± 13.2 | 7.0 ± 0.10 | 6.60 ± 0.10 | 6.13 ± 0.12 | 5.83 ± 0.06 | 6.90 ± 0.10 | 6.43 ± 0.32 | 5.90 ± 0.36 | 5.47 ± 0.23 | 6.77 ± 0.42 | 6.40 ± 0.36 | 6.10 ± 0.36 | 5.80 ± 0.30 | 6.12 | 13.6 | 22.5 | 24.4 | -0.68 | 9.09 | 20.7 | inhibition in vivo at 5 mg/kg ([1]; 5.0 mg/kg, 4 h): 31.1%; inhibition in vivo at 10 mg/kg ([1]; 10.0 mg/kg, 1 h): 19.7%; inhibition in vivo at 10 mg/kg ([1]; 10.0 mg/kg, 2 h): 27.3%; inhibition in vivo at 10 mg/kg ([1]; 10.0 mg/kg, 3 h): 29.7%; inhibition in vivo at 10 mg/kg ([1]; 10.0 mg/kg, 4 h): 33.3%
